Measured values taken from patent US20100004194A1, “USE OF ISOMALTULOSE IN FOOD PRODUCTS HAVING A REGENERATIVE EFFECT” (priority 2006, published 2010).
“Also recorded” adds a separate entry of the source.

Columns and labels:
[1] = Second meal effect crossover study: respiratory quotient over a test period including two meals and 30-min treadmill exertion; type: in vivo, human; conditions: 20 subjects
Description: The test was a crossover study with 20 subjects. In each subject, the effect of isomaltulose vs. sucrose/glucose syrup was tested.
The test period comprised two meals into which the test substances were integrated: on the one hand a breakfast, which consisted of a drink (250 ml, 10% carbohydrates=25 g of test substance) and biscuits (approx. 140 g, also with 25 g of test substance), and on the other hand a lunch consisting of mini pizzas, an apple and a refreshment drink. The carbohydrate quantity, consumed per portion of shortpastry, of wheat starch of the flour was, at about 50-60 g carbohydrates, at the same level in all biscuit variants. Each test period comprised two postprandial phases.
The respiratory quotient was determined first at rest, then during the subsequent 30-min exertion at moderate intensity (treadmill uphill protocol 4 km/h 5% gradient), at the end of the 30-minute post-exertion phase and up to 4 hours after consumption of the second meal (the lunch).

[2] = 3-armed crossover study: respiratory quotient before, during and after physical exertion (bicycle ergometer, Wingate test) with test drinks; type: in vivo, human; conditions: 21 male endurance athletes
Description: The effect of isomaltulose (Palatinose™) on the regulation of the metabolism before, during and after physical exertion was examined and compared with the consumption of maltodextrin or a placebo which has a non-glycaemic effect and is of equivalent sweetness.
The test was carried out as a 3-armed crossover study on 21 subjects. In each subject, the effect of a non-glycaemic drink (placebo=sweetened mineral water) was tested versus a drink containing maltodextrin versus isomaltulose.
The subjects were male endurance athletes with several years' training experience (VO2max>55 ml/kg KG) aged between 23 and 50.
In step ergometry on a bicycle (100 watts at the start; increased by 50 watts/3 min), performance was first determined in the range of from 70-75% of the maximum oxygen uptake. After a sufficient regeneration phase of at least 5 days, the first testing was carried out in randomised order. The testing was carried out in the morning, at the same time in each case, 3-4 hours after a standardised breakfast.
Standardised endurance exertion was first carried out on a bicycle ergometer at 70-75% of the VO2max over 90 min. […] The respiratory quotient (RQ) was determined at the moments −30, −15, 0, 15, 30, 45, 60, 75, 90 min before or during the exertion, immediately after completion of the Wingate test and also 3, 15, 30, 60 and 120 min after end of exertion. […]

## OC[C@H]1O[C@H](OC[C@H]2OC(O)(CO)[C@@H](O)[C@@H]2O)[C@H](O)[C@@H](O)[C@@H]1O (stereo partly shown) [isomaltulose]
[1]; breakfast drink with 25 g plus biscuits with 25 g test substance, versus sucrose/glucose syrup breakfast
  RQ after consumption of the breakfast: lower than after the sucrose/glucose syrup breakfast
[1]; up to 4 hours after the lunch, versus sucrose/glucose syrup
  degree by which the RQ was lower after consumption of a second meal (lunch): maintained
[2]; 250 ml drinks with 25 g carbohydrate 30 min prior, at start, after 45 min and after Wingate test (2x250 ml), 90 min at 70-75% VO2max
  respiratory quotient (RQ) after the physical exertion versus immediately prior to the exertion (percentage change): substantially equal to or even lower; also recorded: substantially equal
[2]; isomaltulose drink compared with maltodextrin drink or placebo
  RQ throughout the test phase: lower RQ
